# Measured values from patent US10745395B2, “Compounds for their use as drugs for the treatment and/or the prevention of infection(s) caused by biofilm-forming bacteria” (CENTRE NATIONAL DE LA RECHERCHE SCIENTIFIQUE, priority 2014, dated 2020).
# Legend:
# Assay type in all cases: cell-based, Pseudomonas aeruginosa
# [1] = test system: P. aeruginosa strain PAR 20 biofilm; assay: Early biofilm model, Congo red staining; conditions: for absorbance (Congo red, biofilm formation): early biofilm, 0.9 mM, 492 nm
# Experimental: (§1) P. aeruginosa biofilm was set-up in sterile plastic 96-well plates with adherent surface (Greiner Bio-One, USA).
# (§2) Twenty microliter quantities of the bacterial stock suspensions, prepared as described above, were added to each well followed with 180 μl of sterile TSB. Final concentration of the bacteria was 1×10^8 CFU/ml.
# (§3) The plates were centrifuged for 10 minutes at 2000 rpm to sediment bacteria on the bottom of each well and then incubated for 72 hours (37° C., aerobic conditions).
# (§4) Biofilm quantity was determined using Congo red dye according to a modified procedure described by Allison et al. (Allison G C, Sutherland I W. A staining technique for bacteria and its correlation to extracellular carbohydrate production. J Microbiol Meth 2, 93-99 (1984)).
# (§5) Briefly, at different time points (0, 6, 18, 24, 48 and 72 hours), the culture medium was gently removed from wells by using the pipette and immediately 200 μl of 0.1% Congo red solution was added. The plates were left for 30 minutes at room temperature and then 10 minutes before the end of staining, the plate was centrifuged for 10 minutes at 2000 rpm and then washed twice with buffered saline to remove unbound dye. Absorbance was measured at λ=492 nm wavelength using spectrophotometer (Awarness Technology Inc., Palm City, Fla., USA). All measurements were performed in triplicates and mean values±SD are given.
# (§6) Early biofilm model: formation of early biofilm under influence of the tested substances was observed by filling wells of a 96-well plate with 20 μl of P. aeruginosa suspension and 180 μl of TSB, as described above. Tested iminosugars (compounds 1, 2, 3 and 4) were added immediately after setting-up the bacteria at a final concentration of 0.9 mM. Then, the plate was gently mixed and incubated for 48 hours at 37° C.
# (§7) Biofilm formation and the number of viable bacteria were checked in parallel in the following time intervals: 0, 0.5, 8, 24, 48 hours, in accordance with the procedure described above. Biofilm thickness was estimated by staining it with Cango Red and measuring optical density while number of viable bacteria was performed using the standard viable count method. (Allison G C, Sutherland I W. A staining technique for bacteria and its correlation to extracellular carbohydrate production. J Microbiol Meth 2, 93-99 (1984)).
# (§8) P. aeruginosa suspension cultures in TSB broth alone were used as a control.
# [2] = test system: P. aeruginosa strain PAR 5 biofilm; assay: Early biofilm model, Congo red staining; conditions: for absorbance (Congo red, biofilm formation): 0.9 mM, 492 nm
# Experimental: as §1, §2, §3, §4, §5, §6, §7, §8
# [3] = test system: P. aeruginosa strain PAR 50 biofilm; assay: Early biofilm model, Congo red staining; conditions: for absorbance (Congo red, biofilm formation): early biofilm, 0.9 mM, 492 nm
# Experimental: as §1, §2, §3, §4, §5, §6, §7, §8
# [4] = test system: P. aeruginosa strain PAR 20 biofilm; assay: Mature biofilm model, Congo red staining; conditions: for absorbance (Congo red, biofilm development): mature biofilm, compound added 48 h after induction of biofilm
# Experimental: as §4, §5
# (§9) Mature biofilm model: the tested substances were added 48 hours after adherence of bacteria to the wells in a 96-well plate. The growth conditions of P. aeruginosa were exactly the same, as described above for the early biofilm model.
# (§10) After the addition of iminosugars (compounds 1, 2, 3 and 4), the biofilm formation and the number of viable bacteria were checked in the following time intervals: 48, 48.5, 56, 72, 96 hours.
# [5] = test system: P. aeruginosa strain PAR 5 biofilm; assay: Mature biofilm model, Congo red staining; conditions: for absorbance (Congo red, biofilm development): mature biofilm, compound added 48 h after induction of biofilm
# Experimental: as §4, §5, §9, §10
# [6] = test system: P. aeruginosa strain PAR 50 biofilm; assay: Mature biofilm model, Congo red staining; conditions: for absorbance (Congo red, biofilm development): mature biofilm, compound added 48 h after induction of biofilm
# Experimental: as §4, §5, §9, §10
# [7] = test system: P. aeruginosa strain PAR 20; assay: Number of viable bacteria in early and mature biofilm (viable count)
# Experimental: as §7, §10
# (§11) Numbers of viable bacteria contained in the early and mature biofilm were estimated on separate plates with wells filled with tested P. aeruginosa strains as described above (PAR 5, PAR 20, PAR 50).
# (§12) At the same time intervals, biofilm content in each well was removed and mixed by multiple pippeting and transferred to sterile tubes. Then decimal dilutions of the bacterial suspension were made in TSB broth, plated on McConkey Agar (Oxoid), and incubated at 37° C. for 24 hours.
# (§13) Numbers of colonies grown on platter were counted and total numbers of the viable bacteria calculated as colony forming units (CFU) per ml.
# (§14) The results depict logs of CFU/ml for three P. aeruginosa strains: PAR 5, PAR 20 and PAR 50 measured at different time intervals (0 hours, 8 hours, 24 hours, 48 hours, 56 hours, 72 hours and 96 hours). The detection limit is 100 CFU/ml.
# [8] = test system: P. aeruginosa strain PAR 50; assay: as above
# Experimental: as §7, §10, §11, §12, §13, §14
# [9] = test system: P. aeruginosa strain PAR 5; assay: as above
# Experimental: as §7, §10, §11, §12, §13, §14
# [10] = test system: P. aeruginosa strain PAR 5 biofilm; assay: Reduction of biofilm growth (percent vs culture control)
# Source text: (§15) FIG. 4A represents the effect of the tested compounds (1, 2, 3 and 4) on exopolysaccharide biosynthesis in the early stages and mature P. aeruginosa biofilm formation, strain PAR 5. The abscissa represents the time (in hours) in order to differentiate early biofilm and mature biofilm, and the ordinate represents the percentage of the biofilm reduction.
# as §6, §9
# (§16) The effect of the tested compounds (1, 2, 3 and 4) on the reduction of biofilm growth has also been studied on the three P. aeruginosa strains PAR 5, PAR 20, PAR 50.
# (§17) (Percent decrease in biofilm thickness was obtained as a mean value from 3 consecutive measurements of the Congo Red stained biofilm using spectrophotometer after addition of the tested iminosugars in comparison to control regarded as 100%).
# [11] = test system: P. aeruginosa strain PAR 20 biofilm; assay: as above
# Source text: as §15, with “4B” for “4A”, “20.” for “5.”
# as §6, §9, §16, §17
# [12] = test system: P. aeruginosa strain PAR 50 biofilm; assay: as above
# Source text: as §15, with “4C” for “4A”, “50.” for “5.”
# as §6, §9, §16, §17
# [13] = in comparison with culture control
smiles,measurement,setting,value
"CCCCCC[C@H]1NC[C@@H](O)[C@H](O)[C@H]1O [Compound 1, α-1-C-hexyl-1,5-dideoxy-1,5-imino-D-xylitol]","absorbance (Congo red, biofilm formation)",[1]; 8 hours,about 1.0 a.u.
same,"absorbance (Congo red, biofilm formation)",[1]; 24 hours,about 1.0 a.u.
same,"absorbance (Congo red, biofilm formation)",[1]; 48 hours,about 0.75 a.u.
same,effect on formation of an early biofilm,[1]; [13],inhibit the formation of an early biofilm
same,"biofilm formation at 8 hours, 24 hours and 48 hours",[2]; early biofilm,no biofilm formation
same,"absorbance (Congo red, biofilm formation)","[2]; early biofilm, 8 hours",about 0.25 a.u.
same,"absorbance (Congo red, biofilm formation)","[2]; early biofilm, 24 hours",about 0.25 a.u.
same,"absorbance (Congo red, biofilm formation)","[2]; early biofilm, 48 hours",about 0.25 a.u.
same,effect on formation of an early biofilm,[2]; [13],inhibit the formation of an early biofilm
same,"absorbance (Congo red, biofilm formation)",[3]; 8 hours,about 0.5 a.u.
same,"absorbance (Congo red, biofilm formation)",[3]; 24 hours,about 0.8 a.u.
same,"absorbance (Congo red, biofilm formation)",[3]; 48 hours,about 0.9 a.u.
same,effect on formation of an early biofilm,[3]; [13],inhibit the formation of an early biofilm
same,influence on mature biofilm formation,[4],weak influence
same,"absorbance (Congo red, biofilm development)",[4]; 48 hours,about 0.75 a.u.
same,"absorbance (Congo red, biofilm development)",[4]; 56 hours,about 0.6 a.u.
same,"absorbance (Congo red, biofilm development)",[4]; 72 hours,about 1.5 a.u.
same,"absorbance (Congo red, biofilm development)",[4]; 96 hours,about 1.0 a.u.
same,influence on mature biofilm formation,[5],weak influence
same,"absorbance (Congo red, biofilm development)",[5]; 48 hours,about 0.7 a.u.
same,"absorbance (Congo red, biofilm development)",[5]; 56 hours,about 1.1 a.u.
same,"absorbance (Congo red, biofilm development)",[5]; 72 hours,about 1.25 a.u.
same,"absorbance (Congo red, biofilm development)",[5]; 96 hours,about 0.5 a.u.
same,influence on mature biofilm formation,[6],weak influence
same,"absorbance (Congo red, biofilm development)",[6]; 48 hours,about 1.6 a.u.
same,"absorbance (Congo red, biofilm development)",[6]; 56 hours,about 1.5 a.u.
same,"absorbance (Congo red, biofilm development)",[6]; 72 hours,about 2.4 a.u.
same,"absorbance (Congo red, biofilm development)",[6]; 96 hours,about 1.9 a.u.
same,number of viable P. aeruginosa,"[7]; early biofilm, 0 h",4 × 10^6 CFU/ml
same,number of viable P. aeruginosa,"[7]; early biofilm, 8 h",7 × 10^7 CFU/ml
same,number of viable P. aeruginosa,"[7]; early biofilm, 24 h",1 × 10^8 CFU/ml
same,number of viable P. aeruginosa,"[7]; early biofilm, 48 h",4 × 10^8 CFU/ml
same,number of viable P. aeruginosa,"[7]; mature biofilm, 56 h",6 × 10^7 CFU/ml
same,number of viable P. aeruginosa,"[7]; mature biofilm, 72 h",5 × 10^7 CFU/ml
same,number of viable P. aeruginosa,"[7]; mature biofilm, 96 h",1 × 10^8 CFU/ml
same,number of viable P. aeruginosa,"[8]; early biofilm, 0 h",8 × 10^7 CFU/ml
same,number of viable P. aeruginosa,"[8]; early biofilm, 8 h",2 × 10^8 CFU/ml
same,number of viable P. aeruginosa,"[8]; early biofilm, 24 h",4 × 10^8 CFU/ml
same,number of viable P. aeruginosa,"[8]; early biofilm, 48 h",3 × 10^8 CFU/ml
same,number of viable P. aeruginosa,"[8]; mature biofilm, 56 h",2 × 10^9 CFU/ml
same,number of viable P. aeruginosa,"[8]; mature biofilm, 72 h",1 × 10^9 CFU/ml
same,number of viable P. aeruginosa,"[8]; mature biofilm, 96 h",1 × 10^9 CFU/ml
same,number of viable P. aeruginosa,"[9]; early biofilm, 0 h",2 × 10^6 CFU/ml
same,number of viable P. aeruginosa,"[9]; early biofilm, 8 h",3 × 10^7 CFU/ml
same,number of viable P. aeruginosa,"[9]; early biofilm, 24 h",9 × 10^7 CFU/ml
same,number of viable P. aeruginosa,"[9]; early biofilm, 48 h",1 × 10^8 CFU/ml
same,number of viable P. aeruginosa,"[9]; mature biofilm, 56 h",3 × 10^8 CFU/ml
same,number of viable P. aeruginosa,"[9]; mature biofilm, 72 h",2 × 10^8 CFU/ml
same,number of viable P. aeruginosa,"[9]; mature biofilm, 96 h",3 × 10^8 CFU/ml
same,reduction of biofilm growth,[10]; 8 hours of incubation,about 90%
same,reduction of biofilm growth,[10]; 24 hours of incubation,about 90%
same,reduction of biofilm growth,[10]; 48 hours of incubation,about 25%
same,reduction of biofilm growth,[10]; 72 hours of incubation,about 10%
same,effect on biofilm growth,[10]; notably an early biofilm,can reduce the biofilm growth
same,reduction of biofilm growth,[11]; 8 hours of incubation,about 30%
same,reduction of biofilm growth,[11]; 24 hours of incubation,about 40%
same,reduction of biofilm growth,[11]; 48 hours of incubation,about 40%
same,reduction of biofilm growth,[11]; 72 hours of incubation,about 0%
same,effect on biofilm growth,[11]; notably an early biofilm,can reduce the biofilm growth
same,reduction of biofilm growth,[12]; 8 hours of incubation,about 30%
same,reduction of biofilm growth,[12]; 24 hours of incubation,about 30%
same,reduction of biofilm growth,[12]; 48 hours of incubation,about 0%
same,reduction of biofilm growth,[12]; 72 hours of incubation,about 0%
same,effect on biofilm growth,[12]; notably an early biofilm,can reduce the biofilm growth
